Some results are limits rather than exact numbers.

Drawing on BindingDB's records for doi:10.1016/s0960-894x(97)10151-2 (Merck, 1999), this text covers IC50 for seven compounds.

This experiment deals with Endothelin receptor type B (Sus scrofa). Briefly: Inhibition of [125I]ET1 binding to porcine kidney inner medulla membrane Endothelin B receptor.
One may read the IC50 as the concentration needed to halve the response being measured. Read a low IC50 as greater potency. Consider `COc1ccc(C2(O)OC(=O)C(c3ccc4nsnc4c3)=C2Cc2cc(OC)c(OC)c(OC)c2)cc1` (configuration not stated) [3-Benzo[1,2,5]thiadiazol-5-yl-5-hydroxy-5-(4-methoxy-phenyl)-4-(3,4,5-trimethoxy-benzyl)-5H-furan-2-one], for which the half-inhibitory concentration (IC50) worked out at 340 nM.

In turn, `CCCOc1ccc2c(c1)c(-c1ccc(OC)cc1)c(C(=O)O)n2Cc1ccc2nsnc2c1` [1-Benzo[1,2,5]thiadiazol-5-ylmethyl-3-(4-methoxy-phenyl)-5-propoxy-1H-indole-2-carboxylic acid] displayed an IC50 of 1200 nM. Against the preceding compound, the IC50 is about 3.5-fold higher. `CCCOc1ccc2c(c1)c(-c1ccc3c(c1)OCO3)c(C(=O)O)n2Cc1ccc2nonc2c1` [3-Benzo[1,3]dioxol-5-yl-1-benzo[1,2,5]oxadiazol-5-ylmethyl-5-propoxy-1H-indole-2-carboxylic acid] came in with an IC50 of 5300 nM. Take `COc1ccc(-c2c(C(=O)O)c(=O)n(Cc3ccc4nsnc4c3)c3c2oc2ccccc23)cc1` [1-Benzo[1,2,5]thiadiazol-5-ylmethyl-4-(4-methoxy-phenyl)-2-oxo-1,2-dihydro-benzo[4,5]furo[3,2-b]pyridine-3-carboxylic acid]: the IC50 was 300 nM. Compound `COc1ccc(-c2c(C(=O)O)c(=O)n(Cc3ccc4c(c3)OCO4)c3c2oc2ccccc23)cc1` [1-Benzo[1,3]dioxol-5-ylmethyl-4-(4-methoxy-phenyl)-2-oxo-1,2-dihydro-benzo[4,5]furo[3,2-b]pyridine-3-carboxylic acid] had an IC50 of 440 nM. As for `CCCOc1ccc2c(c1)c(-c1ccc3c(c1)OCO3)c(C(=O)O)n2Cc1ccc2c(c1)OCO2` [3-Benzo[1,3]dioxol-5-yl-1-benzo[1,3]dioxol-5-ylmethyl-5-propoxy-1H-indole-2-carboxylic acid], the IC50 worked out at 1600 nM. `CN(C)c1cccc2c(S(=O)(=O)Nc3ccc4c(c3)OCO4)cccc12` [5-Dimethylamino-naphthalene-1-sulfonic acid benzo[1,3]dioxol-5-ylamide]: the IC50 is more than 10000 nM.
